Laboratory results published in US8604023B2, “1,4-benzodiazepinone compounds and their use in treating cancer” (The Regents of the University of Michigan, priority 2009, dated 2013).

How the values were obtained:
Experiment in all cases: cancer cell growth inhibition (SRB)
Type in all cases: cell-based, human
A549/ATCC = settings: Non-Small Cell Lung Cancer
EKVX = settings: Non-Small Cell Lung Cancer
NCI-H226 = settings: Non-Small Cell Lung Cancer
NCI-H322M = settings: Non-Small Cell Lung Cancer
NCI-H522 = settings: Non-Small Cell Lung Cancer
COLO 205 = settings: Colon Cancer
HCC-2998 = settings: Colon Cancer
HCT-116 = settings: Colon Cancer
HCT-15 = settings: Colon Cancer
HT29 = settings: Colon Cancer
SW-620 = settings: Colon Cancer
MDA-MB-435 = settings: Breast Cancer
MDA-MB-468 = settings: Breast Cancer
Description: The compounds described herein can be tested for activity against various forms of cancer by testing for inhibition of cancer cell growth using in vitro assays. For example, compounds V-23 and V-38 (See Table 5 in Example 26) where tested for efficacy in inhibiting the growth of human cancer cells using the general procedure described below. The test evaluated compound activity for inhibiting cancer cell growth in over 50 cancer cell lines, which included non-small cell lung cancer, colon cancer, breast cancer, ovarian cancer, leukemia, renal cancer, melanoma, prostate cancer, and cancer of the central nervous system tissue. […]
Following addition of the test compound, the plates are incubated for an additional 48 h at 37° C., 5% CO2, 95% air, and 100% relative humidity. […] Bound stain is then solubilized with 10 mM trizma base, and the absorbance is read on an automated plate reader at a wavelength of 515 nm. […] Using seven absorbance measurements [time zero, (Tz), control growth, (C), and test growth in the presence of drug at the five concentration levels (Ti)], the percentage growth is calculated at each of the drug concentrations levels.
The percentage of growth inhibition caused by the test compounds on the cancer cell lines can be calculated using the following formulae: [(Ti−Tz)/(C−Tz)]×100 for concentrations for which Ti≧Tz [(Ti−Tz)/Tz]×100 for concentrations for which Ti<Tz

T-47D = settings: Breast Cancer
IGROV1 = settings: Ovarian Cancer
OVCAR-5 = settings: Ovarian Cancer
OVCAR-8 = settings: Ovarian Cancer
RPMI-8226 = settings: Leukemia
ACHN = settings: Renal Cancer
TK-10 = settings: Renal Cancer
UO-31 = settings: Renal Cancer
M14 = settings: Melanoma
SK-MEL-28 = settings: Melanoma
PC-3 = settings: Prostate Cancer
SF-539 = settings: CNS Cancer
SNB-19 = settings: CNS Cancer

## CN1C(=O)C(Cc2ccc3ccccc3c2)N=C(c2cn[nH]c2)c2cc(Cl)ccc21 (centres unmarked) [Compound V-38]
A549/ATCC
  growth inhibition of the cancer cells: ++ (40%-75% growth inhibition of the cancer cells)
EKVX
  growth inhibition of the cancer cells: ++ (40%-75% growth inhibition of the cancer cells)
NCI-H226
  growth inhibition of the cancer cells: ++ (40%-75% growth inhibition of the cancer cells)
NCI-H322M
  growth inhibition of the cancer cells: + (less than 40% growth inhibition of the cancer cells)
NCI-H522
  growth inhibition of the cancer cells: ++ (40%-75% growth inhibition of the cancer cells)
COLO 205
  growth inhibition of the cancer cells: ++ (40%-75% growth inhibition of the cancer cells)
HCC-2998
  growth inhibition of the cancer cells: +++ (at least 75% growth inhibition of the cancer cells)
HCT-116
  growth inhibition of the cancer cells: +++ (at least 75% growth inhibition of the cancer cells)
HCT-15
  growth inhibition of the cancer cells: ++ (40%-75% growth inhibition of the cancer cells)
HT29
  growth inhibition of the cancer cells: + (less than 40% growth inhibition of the cancer cells)
SW-620
  growth inhibition of the cancer cells: +++ (at least 75% growth inhibition of the cancer cells)
MDA-MB-435
  growth inhibition of the cancer cells: + (less than 40% growth inhibition of the cancer cells)
MDA-MB-468
  growth inhibition of the cancer cells: ++ (40%-75% growth inhibition of the cancer cells)
T-47D
  growth inhibition of the cancer cells: + (less than 40% growth inhibition of the cancer cells)
IGROV1
  growth inhibition of the cancer cells: +++ (at least 75% growth inhibition of the cancer cells)
OVCAR-5
  growth inhibition of the cancer cells: + (less than 40% growth inhibition of the cancer cells)
OVCAR-8
  growth inhibition of the cancer cells: + (less than 40% growth inhibition of the cancer cells)
RPMI-8226
  growth inhibition of the cancer cells: + (less than 40% growth inhibition of the cancer cells)
ACHN
  growth inhibition of the cancer cells: +++ (at least 75% growth inhibition of the cancer cells)
TK-10
  growth inhibition of the cancer cells: +++ (at least 75% growth inhibition of the cancer cells)
UO-31
  growth inhibition of the cancer cells: +++ (at least 75% growth inhibition of the cancer cells)
M14
  growth inhibition of the cancer cells: +++ (at least 75% growth inhibition of the cancer cells)
SK-MEL-28
  growth inhibition of the cancer cells: +++ (at least 75% growth inhibition of the cancer cells)
PC-3
  growth inhibition of the cancer cells: + (less than 40% growth inhibition of the cancer cells)
SF-539
  growth inhibition of the cancer cells: +++ (at least 75% growth inhibition of the cancer cells)
SNB-19
  growth inhibition of the cancer cells: ++ (40%-75% growth inhibition of the cancer cells)
